In data set [1] the test system is J774.1. As to the kind of experiment: Inhibition of LPS-induced nitric oxide production in mouse J774.1 cells after 24 hrs by griess assay. Format: functional, cell-based. The settings on record: for IC50: J774.1, 24 h.
Data set [2] is described as follows: Cytotoxicity against mouse J774.1 cells after 2 hrs by MTT assay. Format: cell-based. To be noted: j774.1, 2 h. In general terms: Formazan colour is commonly taken as a measure of viable cells.

Molecules are shown by their SMILES. Calls of active or inactive are those of the source. The rule behind the calls is not given here.

Consider `COC(=O)C[C@H]1C(C)(C)[C@@H]2O[C@@]34C[C@@H]2C(=O)[C@]1(C)[C@H]3CC[C@]1(C)C4CC(=O)O[C@@H]1c1ccoc1` (some centres not stated), for which, in data set [1], the inhibition result was “inactive”. With `CNC(=N)NCCC[C@H](N)C(=O)O` [TILARGININE], it took 13.8 µg/mL to reach half-maximal inhibition in data set [1] (IC50). For `C/C=C(\C)C(=O)O[C@@H]1C2[C@H]3O[C@]34[C@@H]3CC(=O)O[C@@H](c5ccoc5)[C@]3(C)CC[C@@H]4[C@@]3(C)[C@@H](CC(=O)OC)[C@@]1(C)C[C@@]23O` (some centres not stated), the inhibition result in data set [1] is “inactive”. On the same count and under the same terms, the value for `COC(=O)C[C@H]1C(C)(C)[C@H](O)[C@@H]2CC3=C4CC(=O)O[C@@H](c5ccoc5)[C@]4(C)CC[C@@H]3[C@@]1(C)C2=O` was “inactive”.

Take `C/C=C(\C)C(=O)O[C@@H]1/C=C\C2=C3CC(=O)O[C@@H](c4ccoc4)[C@]3(C)CC[C@@H]2[C@@]2(C)C(=O)C[C@]1(C)[C@@H]2CC(=O)OC` [CHISOMICINE A]: the Activity entry in data set [2] was “Toxic”. Besides, the IC50 in data set [1] stood at 20.2 µM. Consider `C/C=C(\C)C(=O)O[C@@H]1C2C=C3[C@H](CC[C@@]4(C)[C@H](c5ccoc5)OC(=O)C[C@@]34O)[C@@]3(C)[C@@H](CC(=O)OC)[C@@]1(C)CO[C@@]23O`, for which the inhibition result in data set [1] is “inactive”.

A word on the IC50: it is the point on the concentration scale where inhibition reaches its midpoint. The low end stands for greater potency, the high end for weaker potency.

For the origin of these results see ChEMBL document CHEMBL1782024, “Chisomicines A-C, limonoids from Chisocheton ceramicus” (J Nat Prod, 2011).
